Entries after “also recorded” stand apart in the source; their conditions may differ.
Legend:
A2A receptors in the rat = target: T1, A2A receptors in the rat (Rattus norvegicus, UniProt P30543); assay: Radioligand binding assay, rat A2A receptor; details: read-out: pKi, rat A2A receptor (converted)
T1 construct: made in house; host or cells: CHO cells, Semliki Forest virus expression system

[1] = target: A2A receptors in the monkey (Saimiri sp., UniProt A0A2K6V039); assay: Radioligand binding assay, monkey A2A receptor (striatal tissue)
female Wistar rats = assay: Swim stress test; type: in vivo, rat; details: 3, 10 and 30 mg/kg po; vs controls
Procedure: (§1) The swim stress test relies on the principle that when placed in water, rodents after an initial period of vigorous activity, adopt a characteristic immobile posture making only the minimal movements necessary to stay afloat. A reduction in the time of immobility is considered indicative of potential antidepressant-like properties of a particular drug.
The tricyclic antidepressant desipramine was used as reference drug at 100 mg/kg po. Data are mean±SEM based on 8 animals per group.
as §1, with “activity” for “activity,”, “posture,” for “posture”, “drug (Porsolt R D et al. Behavioural despair in rats: a new model sensitive to antidepressant treatments. Eur. J. Pharmacol. 1978; 47:379-391). […]” for “drug.”
Naïve rats were individually forced to swim inside vertical plexiglass cylinders (height: 40 cm; diameter: 17.5 cm) containing 15 cm of water maintained at 23-24° C. […] They were replaced in the cylinders 24 h later and the total duration of immobility was measured during a 5-min test. […]
Data were analyzed using an unpaired Student's t-test. […]

male Sprague-Dawley rats = assay: Differential-reinforcement-of-low-rate-30-seconds (DRL-30) test; type: in vivo, rat; details: 3, 10 and 30 mg/kg po, 2 h before test
Text: The differential-reinforcement-of low-rate (DRL) test is used not only to assess the potential antidepressant properties of drugs but also their anxiolytic potential. Animals are trained to respond to a certain stimulus by pressing a lever. Typical antidepressants, such as TCAs, increase the time between responses, thereby decreasing the response rate. They also increase the number of reinforced responses i.e. repeated pressing of the lever at least 30 seconds after the initial pressing of the lever. Opposite effects are observed with atypical antidepressants such as nomifensine and with benzodiazepine-like anxiolytics.
The method follows that described by Richards J B, Seiden L S. A quantitative interresponse-time analysis of DRL performance differentiates similar effects of the antidepressant desipramine and the novel anxiolytic gepirone. J Exp Anal Behav. 1991; 56:173-192. Stephens D N, Voet B. Differential effects of anxiolytic and non-anxiolytic benzodiazepine receptor ligands on performance of a differential reinforcement of low rate (DRL) schedule. Behav Pharmacol. 1994; 5:4-14. Typical antidepressants increase the inter-response times, therefore decreasing the rate of responding. They also increase the number of reinforcements. Opposite effects are observed with benzodiazepine-like anxiolytics or with atypical antidepressants.
Male adult Sprague-Dawley rats (Charles River, France) weighing approximately 350 g were used. The animals were housed one per cage in Macrolon Type 3 cages (810 cm^2) with sawdust bedding and wood shavings. Animals had free access to tap water and restricted access (15 g per day) to standard laboratory chow (Ratte Alleinfutter, extrudat No 3436; Provimikliba Kaiseraugst, Switzerland). The animal quarters were maintained on a 12:12 hr light-dark cycle with light onset at 6 a.m. Room temperature (22±2° C.) and humidity (55-65%) were kept constant. The experimental procedures used received prior approval from the City of Basel Cantonal Animal Protection Committee based on adherence to federal and local regulations on animal maintenance and testing. […]

Sequence of A2A receptors in the monkey (A0A2K6V039 entry or part of it): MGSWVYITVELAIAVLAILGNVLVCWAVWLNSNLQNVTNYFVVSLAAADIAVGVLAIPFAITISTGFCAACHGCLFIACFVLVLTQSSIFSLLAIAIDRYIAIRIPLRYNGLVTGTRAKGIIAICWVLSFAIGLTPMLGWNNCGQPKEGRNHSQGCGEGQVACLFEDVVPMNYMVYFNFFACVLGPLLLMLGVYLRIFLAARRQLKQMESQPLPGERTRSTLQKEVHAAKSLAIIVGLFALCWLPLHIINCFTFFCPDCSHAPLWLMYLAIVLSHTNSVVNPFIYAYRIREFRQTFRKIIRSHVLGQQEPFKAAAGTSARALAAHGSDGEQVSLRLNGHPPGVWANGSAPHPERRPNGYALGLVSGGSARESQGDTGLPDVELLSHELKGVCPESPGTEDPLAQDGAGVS
T1 sequence (P30543 whole entry): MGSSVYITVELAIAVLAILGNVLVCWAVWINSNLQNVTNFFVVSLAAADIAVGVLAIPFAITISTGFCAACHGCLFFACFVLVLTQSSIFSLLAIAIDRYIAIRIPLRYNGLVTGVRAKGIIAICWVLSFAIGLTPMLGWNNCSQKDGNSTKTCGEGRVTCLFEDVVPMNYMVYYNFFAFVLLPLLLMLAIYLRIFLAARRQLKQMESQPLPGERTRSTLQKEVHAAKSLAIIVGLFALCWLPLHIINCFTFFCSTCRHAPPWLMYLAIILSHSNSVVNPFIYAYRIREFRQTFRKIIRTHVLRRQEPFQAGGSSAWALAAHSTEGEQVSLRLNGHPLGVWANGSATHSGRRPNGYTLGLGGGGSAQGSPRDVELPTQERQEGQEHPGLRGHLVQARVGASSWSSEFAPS

COc1ccc(N2CCOCC2)c2sc(NC(=O)N3CCC(C)(O)CC3)nc12 [4-hydroxy-4-methyl-piperidine-1-carboxylic acid (4-methoxy-7-morpholin-4-yl-benzothiazol-2-yl)-amide]
Ki (A2A receptors in the rat): 20 nM | pKi, monkey A2A receptor [1]: 7.9 | mean total duration of immobility (female Wistar rats): dose-dependent decrease; also recorded: significantly and dose-dependently decreased | mean inter-response time (time between responses) (male Sprague-Dawley rats): decreased | number of reinforcements (reinforced responses) (male Sprague-Dawley rats): tended to decrease | total number of responses (male Sprague-Dawley rats): dose-dependent increase; also recorded: significantly and dose-dependently increased
